From patent EP0321208A1, “Improvements in or relating to avian control” (priority 1987, dated 1989) come the findings set out here.

Series [1] deals with bullfinch trypsin. Nature of the series: BAEE assay: inhibition of bullfinch intestinal trypsin activity. The settings on record: compound 1 x 10⁻⁵M; BAEE substrate; percentage inhibition of control activity ± standard deviation (n = 3); 7 min, 10 µM. In kind it is biochemical. How it is done: (§1) Dried avian intestine powder (500 mg) was extracted for 30 minutes in 1 mM HC₁ (5 ml). The extract was centrifuged at 22,000 x g for 30 minutes at 4°C. The resultant supernatant was applied to a column of Sephadex G-50, medium grade (360 mm x 15 mm) and eluted with 0.5 mM HCl at 0.7 ml/min. Fractions (3.5 ml) were collected and tested for the presence of protein by determining their absorbance at 280 nm. The proteinaceous fractions were bulked and concentrated by passing them through an ultrafiltration unit (YM 30 filter). The concentrate was collected and kept at 4°C throughout its use.
The substrate was prepared bv dissolving BAEE (10 mg) in a mixture of 50 mM Tris-HCl buffer of pH 7.5 (24 ml) and 5% (w/v) calcium chloride solution (1 ml). The bullfinch intestine protease activity was partially purified as described above prior to testing for trypsin activity. The reaction was carried out in a quartz cuvette (1 x 0.25 x 1 cm³) containing substrate (1 ml) and 50 mM Tris-HCl buffer (200 µl). The reaction was started by the addition of the partially purified intestine protease 1200 µl) and followed by the decrease in absorbance at 253 nm over a 7 minute period. All determinations were carried out in triplicate against a reagent blank.
(§2) In both the chymotrypsin and the trypsin assays a control was however carried out using the 200 µl of buffer containing no added compound.

Series [2] concerns feral pigeons. Kind of series: Four day two-choice feeding test with feral pigeons. In kind it is in vivo. The settings on record: for Mean consumption of treated food: four day two-choice, 0.5% w/w compound/pellet. How it is done:
(§3) Feral pigeons were transferred from a communal outdoor aviary to individual cages and maintained on a 10 hour light - 14 hour dark cycle. Birds were gradually weaned away from their normal diet of maize, wheat and maple peas to a standard laboratory diet of turkey starter pellets.
(§4) The pellets were oven dried and then left to absorb atmospheric moisture. The control food was sprayed with the same volume of acetone/water mixture.
(§5) A group of 35 feral pigeons was caged individually for the trials which used eight compounds of formula (I) together with sucrose octaacetate and dimethyl anthranilate, both of which are substances which are known to be avian repellents. Each bird was subjected to treatment with each compound in a random order subject to the limitation of a latin square design. Each treatment was presented to the birds in no-choice and two-choice conditions. The no-choice phase lasted 3 days, during which a bird was presented with a single bowl containing 120 g of treated food. Each bird was weighed before and after the no-choice phase, as was the amount of food remaining. There immediately followed a two-choice phase in which the birds could choose between food treated with a given chemical and a bowl containing otherwise identical pellets without the chemical (the control treatment utilising two bowls of acetone/water treated pellets, one of which was arbitrarily selected as the control). The two-choice phase lasted four days during which food consumption was monitored daily. The position of the food bowls was alternated each day in order to overcome the confusing of food preference with position preference and ample water and grit were supplied throughout the trial.
The data obtained in the four day two-choice test is presented in Table 5 for mean consumption of treated food. […]

Series [3] deals with pigeon trypsin. Kind of series: TAME assay: inhibition of pigeon intestinal trypsin activity. In kind it is biochemical. The settings on record: for Inhibition of Activity: compound 60 µg/ml, TAME substrate, percentage inhibition of control activity ± standard deviation (n = 3), 5 min. How it is done: as §1
The substrate was prepared by dissolving TAME (19 mg) in a mixture of 100 mM Tris-HCl buffer of pH 7.5 (50 ml) and 5% (w/v) calcium chloride solution (2 ml). The pigeon intestine protease was partially purified as described above prior to testing for trypsin activity. The reaction was carried out in a quartz cuvette (1 x 0.25 x 1 cm³) containing substrate (3 ml) and 100 mM Tris-HCl buffer pH 7.5 (100 µl). The reaction was started by the addition of the partially purified intestine protease (100 µl) and followed by the decrease in absorbance at 247 nm over a 5 minute period.
as §2

Series [4] deals with quail chymotrypsin. Kind of series: ATEE assay: inhibition of quail intestinal chymotrypsin activity. In kind it is biochemical, Japanese quail. The settings on record: compound 1 x 10⁻⁵M; ATEE substrate; percentage inhibition of control activity ± standard deviation (n = 3); 5 min, 10 µM.
Procedure: The substrate was prepared by dissolving ATEE (10 mg) in Tris-HCl buffer of pH 7.5 containing 30% (v/v) of methanol (25 ml). The quail intestine protease activity was partially purified as described above prior to testing for chymotrypsin activity. The reaction was carried out in a quartz cuvette (1 x 0.25 x 1 cm³) containing substrate (1 ml) and 100 mM Tris-HCl buffer (200 µl). The reaction was started by the addition of the partially purified intestine protease (200 µl) and followed bv the decrease in absorbance at 237 nm over a 5 minute period. All determinations were carried out in triplicate against a reagent blank.
Series [5] deals with feral pigeons. Kind of series: Three day no-choice feeding test with feral pigeons. The settings on record: 0.5% w/w compound/pellet, ± standard deviation; for Mean weight difference: after the test compared with before; for Mean consumption: treated food. In kind it is in vivo. How it is done:
as §3, §4, §5

For series [6] the following is noted: pear buds.
Series [7] relates to Japanese quail. Nature of the series: Feeding trial with choice, Japanese quail. In kind it is in vivo. As to conditions: for Increase in body weight: value is for the birds offered both diets; for Average food eaten: treated diet eaten. The source says: (§6) (A) Six week old female japanese quail were preconditoned by weighing them seven days before the start of the feeding trial. Five quail were placed in each of four cages and each cage was provided with a different diet, these being (a) a control diet of standard turkey starter crumbs (TSC), (b) TSC treated with 5,000 ppm cinnamamide, (c) TSC treated with 5,000 ppm 4-hydroxy-3,5-dimethoxycinnamic acid, and (d) TSC treated with 2,500 ppm cinnamamide + 2,500 ppm 4-hydroxy-3,5-dimethoxycinnamic acid. The treated TSC was prepared in each case by dissolving/-suspending the compound or compounds in diethyl ether (1500 ml) and mixing this with TSC (2000 g) at 0.25% or 0.5% w/w concentration compound/TSC in an industrial food mixer for 1 hour to evaporate off the diethyl ether and produce a homogeneous mixture. The control was prepared by mixing TSC (2000 g) with diethyl ether for 1 hour in an industrial food mixer. The amount of each diet consumed and the weight gain of the birds was recorded on a daily basis for a period of 14 days. The trial was carried out in duplicate.
(B) In a variation of the treatment decribed in (A) four quail were placed in each of four cages and each cage was offered a choice between a control diet of TSC and TSC treated with one of (a) 5,000 ppm cinnamamide, (b) 2,500 ppm cinnamamide, (c) 1,000 ppm cinnamamide, and (d) 2,500 ppm cinnamamide + 2,500 ppm 4-hydroxy-3,5-dimethoxycinnamic acid. The various diets were prepared as described under (A).
The results of the trial are presented in Table 3, together with the standard deviation. It will be seen that in each case the birds consume less treated than untreated food and that although the weight gain was the least for the birds offered the control + 5,000 ppm cinnamamide diets, it was the 2,500 ppm cinnamamide + 2,500 ppm 4-hydroxy-3,5-dimethoxycinnamic acid diet which was least consumed.

In series [8] the test system is Japanese quail. Kind of series: No choice feeding trial with Japanese quail. As to conditions: 5,000 ppm additive in turkey starter crumbs, 14 days, ± standard deviation. In kind it is in vivo.
From the text: as §6
The results of the trial are presented in Table 2, together with the standard deviation. It will be seen that diets (b) and (d) produced a decreased increase in body weight as compared with the control diet (a). It should be appreciated that increased consumption, which apparently occurs with diets (c) and (d), can be the result of a compensation against the occurrence of the enzyme inhibitory effect and a consequent reduction in value of the food consumed.

[9] abbreviates: choice between control diet and diet with 1,000 ppm additive.
[10] abbreviates: choice between control diet and diet with 2,500 ppm additive.
Where [11] appears, read: choice between control diet and diet with 5,000 ppm additive.

Read-outs that look alike come from different tables or passages of the source.

As to `O=C(O)C=Cc1ccc(O)c(O)c1` [3,4-Dihydroxycinnamic acid], the “Inhibition of Activity Trypsin” value in series [1] came to 43 ± 3 percentage. Moreover, the “Mean consumption of treated food” value in series [2] came out at 31.1 ± 3.4 grams. Moreover, in series [3], the “Inhibition of Activity” value is 22 ± 1 percentage. Moreover, in series [4], the “Inhibition of Activity Chymotrypsin” value is listed as 85 ± 2 percentage. In series [5], this molecule came in with a Mean weight difference of 2.3 ± 1.1 grams and a Mean consumption of 63.3 ± 3.0 grams. Besides, the “residues as a percentage of the initial level” value in series [6] (192 h) was determined as 8%.

In the case of `NC(=O)C=Cc1ccccc1` [Cinnamamide, cinnamamide], the “Inhibition of Activity Trypsin” value in series [1] came to 64 ± 2 percentage. In series [2], the “Mean consumption of treated food” value worked out at 6.0 ± 1.5 grams. The “deterrent effect on food consumption” value is “most marked” in series [2] (two-choice test, proportions of treated and untreated food consumed, statement in words); “a deterrent effect on food consumpton was noted” in series [7] (quail, statement in words). Further, the “Inhibition of Activity” value in series [3] is on record as 0 percentage. The “activity against pigeon intestinal trypsin” value in series [3] (statement in words) was “no activity was observed”. Further, the “Inhibition of Activity Chymotrypsin” value in series [4] amounted to 5 ± 1 percentage. The “Increase in body weight” value stood at 1.29 ± 0.10 g/bird/day in series [7] (setting [9]), 1.34 ± 0.20 g/bird/day in series [7] (setting [10]), 0.66 ± 0.10 g/bird/day in series [7] (setting [11]) and 0.14 ± 0.04 g/bird/day in series [8]. Besides, the Average food eaten was 6 ± 0.2 g/bird/day in series [7] (setting [9]), 5 ± 0.4 g/bird/day in series [7] (setting [10]), 4 ± 0.2 g/bird/day in series [7] (setting [11]) and 17 ± 0.3 g/bird/day in series [8]. Further, in series [5], the Mean weight difference is recorded as -16.2 ± 1.3 grams. Further, in series [5], the Mean consumption came out at 22.3 ± 2.7 grams.

Regarding `O=C(O)C=Cc1ccccc1` [Cinnamic Acid, cinnamic acid], the “Inhibition of Activity Trypsin” value in series [1] stood at 85 ± 2 percentage. Moreover, the “Mean consumption of treated food” value in series [2] was found to be 25.2 ± 2.9 grams. For the same molecule, the “Inhibition of Activity” value in series [3] turned out to be 93 ± 3 percentage. Moreover, the “Inhibition of Activity Chymotrypsin” value in series [4] came out at 32 ± 3 percentage. For the same molecule, in series [5], the Mean weight difference was 2.4 ± 1.1 grams. Further, the Mean consumption in series [5] is on record as 60.4 ± 3.1 grams. Also, the “residues as a percentage of the initial level” value was determined as 41% in series [6] (192 h) and 3% in series [6] (1224 h).
